Some test systems named below: SF-295 CNS; NCI-H23 lung; SNB-78 CNS; CCRF-CEM leukemia; M19-MEL melanoma; SK-OV-3 ovarian; KM20L2 colon; DMS 273 small cell lung; OVCAR-3 ovarian; DMS 114 small cell lung; RXF 393 renal; PC-3 prostate; 786-0 renal; BT-549 breast.
Experiment in all cases: growth of human tumour cells (NCI), 48 h

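Five compound concentrations were applied to cells in 96-well plates for 48 hours; endpoints were derived by simple linear interpolation of the resulting dose-response curve. GI50 is the concentration that inhibits growth by half. TGI is the concentration that stops growth completely.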

Take `Cc1[nH]c(=O)[nH]c(=O)c1/C=C/C(=O)NC(CO)CS(=O)Cc1ccccc1` (centres undefined): the TGI with SF-295 CNS, in the experiment on NCI-H23 lung, in the experiment with SNB-78 CNS, in the experiment with CCRF-CEM leukemia, in the experiment on M19-MEL melanoma and with SK-OV-3 ovarian was more than 300 µM in each case. Besides, the TGI in the experiment on KM20L2 colon, in the experiment on DMS 273 small cell lung, in the experiment with OVCAR-3 ovarian, in the experiment with DMS 114 small cell lung and in the experiment with RXF 393 renal was more than 300 µM in each case.

Regarding `CCOC(=O)C(Cc1cn(C(C)=O)c2ccccc12)P(=O)(OCC)OCC` (centres undefined), the TGI in the experiment on SF-295 CNS, in the experiment with NCI-H23 lung, in the experiment on SK-OV-3 ovarian, with OVCAR-3 ovarian and in the experiment on PC-3 prostate was more than 100 µM throughout.

Regarding `O=C(Nc1ccc(-n2cc(-c3ccncc3)c(-c3ccc(O)c(Cl)c3)n2)cc1)Nc1ccc(Cl)c(C(F)(F)F)c1`, the GI50 in the experiment with SF-295 CNS is 2.99 µM; in the experiment with NCI-H23 lung, 3.56 µM; in the experiment with CCRF-CEM leukemia it was 3.2 µM; with OVCAR-3 ovarian it was 3.23 µM; in the experiment with PC-3 prostate, 2.49 µM; with RXF 393 renal it was 1.67 µM. The TGI in the experiment on SF-295 CNS was found to be 14.6 µM; in the experiment on NCI-H23 lung, 22 µM; in the experiment on CCRF-CEM leukemia, 22.3 µM; with OVCAR-3 ovarian, 10.9 µM; in the experiment on PC-3 prostate, 8.74 µM; in the experiment with RXF 393 renal, 3.56 µM.

Take `O=C(O)CCc1nc2ccccc2[nH]1`: the TGI in the experiment on 786-0 renal, in the experiment with SF-295 CNS, in the experiment with NCI-H23 lung, in the experiment on BT-549 breast, in the experiment with CCRF-CEM leukemia and with SK-OV-3 ovarian was more than 100 µM throughout. In addition, the TGI with OVCAR-3 ovarian, with PC-3 prostate and in the experiment with RXF 393 renal was more than 100 µM each time.

On to `COc1ccc(OC)c(C2CCc3c(cnc4nc(N)nc(N)c34)C2)c1` (centres undefined), for which the TGI with 786-0 renal was determined as 18.3 µM; in the experiment with SF-295 CNS it was 23.3 µM; with BT-549 breast, 40.7 µM; in the experiment with SK-OV-3 ovarian it was 31.2 µM; in the experiment on OVCAR-3 ovarian, 31.3 µM; with PC-3 prostate, 27.5 µM. In the experiment with RXF 393 renal, this compound came in with a TGI of 32.1 µM.

Take `Cn1ccc(C(=O)NCCN(CCNC(=O)c2ccn(C)c(=O)c2O)CCNC(=O)c2ccn(C)c(=O)c2O)c(O)c1=O`: the TGI in the experiment with SF-295 CNS, in the experiment with NCI-H23 lung, with BT-549 breast, with CCRF-CEM leukemia, in the experiment with SK-OV-3 ovarian and with OVCAR-3 ovarian was more than 100 µM throughout. Also, the TGI with PC-3 prostate and in the experiment with RXF 393 renal was more than 100 µM each time.

Turning to `CC(=O)O[C@@H]1C(=O)N(c2ccccc2)[C@@H]1c1cc2ccccc2c2ccccc12`, the TGI is more than 100 µM with 786-0 renal; more than 100 µM with SF-295 CNS; more than 100 µM with NCI-H23 lung; more than 100 µM in the experiment with CCRF-CEM leukemia; more than 100 µM in the experiment on SK-OV-3 ovarian; 83.4 µM in the experiment on OVCAR-3 ovarian. The TGI in the experiment with PC-3 prostate is more than 100 µM; with RXF 393 renal, 62.6 µM.

On to `COc1ccc(C(O)(c2ccccc2)c2nccc3ccccc23)cc1` (centres undefined), for which the TGI with 786-0 renal is more than 100 µM; in the experiment with SF-295 CNS, more than 100 µM; with NCI-H23 lung it was more than 100 µM; with BT-549 breast, more than 100 µM; in the experiment on CCRF-CEM leukemia it was 8.98 µM; with SK-OV-3 ovarian, more than 100 µM. Besides, the TGI in the experiment on OVCAR-3 ovarian is 6.32 µM; in the experiment with PC-3 prostate, more than 100 µM; in the experiment on RXF 393 renal it was 44.2 µM.

As for `CC(C)C(=O)CC(c1ccc(Cl)cc1)N1N=C(C(C)C)CC1c1ccc(Cl)cc1` (centres undefined), the TGI was more than 31.6 µM in the experiment on SF-295 CNS; more than 100 µM in the experiment on NCI-H23 lung; more than 100 µM with SNB-78 CNS; more than 69.8 µM in the experiment with CCRF-CEM leukemia; more than 55.6 µM in the experiment on M19-MEL melanoma; more than 100 µM in the experiment with KM20L2 colon. Besides, the TGI in the experiment on OVCAR-3 ovarian, in the experiment with DMS 114 small cell lung and with RXF 393 renal was more than 100 µM throughout. For the same compound, in the experiment with OVCAR-3 ovarian, the GI50 was 45.6 µM.

`C/C(=N\NC(=S)N(C)C)c1nc2ncccc2[nH]1`: the TGI is 6.48 µM with BT-549 breast, 5.53 µM in the experiment on SK-OV-3 ovarian, more than 100 µM in the experiment on PC-3 prostate and more than 100 µM in the experiment with RXF 393 renal.

Take `OCCCNc1ncnc2[nH]ncc12`: the TGI in the experiment with 786-0 renal, in the experiment on SF-295 CNS, with NCI-H23 lung, with BT-549 breast, in the experiment on CCRF-CEM leukemia and with SK-OV-3 ovarian was more than 100 µM throughout. Besides, the TGI in the experiment with OVCAR-3 ovarian, in the experiment with PC-3 prostate and with RXF 393 renal was more than 100 µM throughout.

On to `C/C(=N\NC(=S)NCCCCNC(=S)N/N=C(\C)c1ccccn1)c1ccccc1`, for which the TGI in the experiment with SF-295 CNS is more than 37.6 µM; in the experiment on NCI-H23 lung, 25.3 µM; in the experiment on BT-549 breast, 29.5 µM; in the experiment on SK-OV-3 ovarian, 38.9 µM; with OVCAR-3 ovarian it was more than 65.2 µM; in the experiment on PC-3 prostate it was more than 100 µM. The compound further gave a TGI with RXF 393 renal of more than 23.1 µM.

Turning to `COc1cc(/C=N\c2nc(-c3ccc(NS(=O)(=O)c4ccc(Cl)c(OC)c4)cc3)cs2)ccc1O`, the TGI in the experiment on 786-0 renal was more than 100 µM; with SF-295 CNS, more than 100 µM; with NCI-H23 lung, 88.8 µM; in the experiment with BT-549 breast, 83 µM; with CCRF-CEM leukemia, more than 100 µM; in the experiment on SK-OV-3 ovarian, more than 100 µM. Also, the TGI is more than 100 µM in the experiment with OVCAR-3 ovarian, more than 100 µM in the experiment on PC-3 prostate and 80.8 µM in the experiment on RXF 393 renal.

Regarding `COc1ccc(-c2cc(-c3ccc(O)cc3O)c(C#N)c(=O)[nH]2)cc1`, the TGI in the experiment on 786-0 renal was determined as 40.9 µM; in the experiment with SF-295 CNS, 34 µM; with NCI-H23 lung, 71.1 µM; in the experiment with BT-549 breast, 55.9 µM; in the experiment with CCRF-CEM leukemia, 56.7 µM; in the experiment with SK-OV-3 ovarian, 33.8 µM. The TGI is 48.6 µM in the experiment on OVCAR-3 ovarian, 35.4 µM in the experiment with PC-3 prostate and 35.4 µM with RXF 393 renal.

In the case of `CCOC(=O)CCSc1nc2ccc(I)cc2c(=O)n1Cc1ccccc1`, the TGI with 786-0 renal was more than 96.8 µM; in the experiment on SF-295 CNS it was more than 73.3 µM; with NCI-H23 lung, more than 64.4 µM; in the experiment on BT-549 breast, more than 94.4 µM; in the experiment with CCRF-CEM leukemia, 67.4 µM; in the experiment on SK-OV-3 ovarian it was more than 100 µM. Also, the figures for the TGI in the experiment with OVCAR-3 ovarian, with PC-3 prostate and with RXF 393 renal were more than 84.5 µM, more than 100 µM and more than 100 µM, respectively.

For the compound `CCCn1cc2c(SC)nc(SC)nc2n1`, the TGI in the experiment with SF-295 CNS, with NCI-H23 lung, with SNB-78 CNS, in the experiment with CCRF-CEM leukemia, in the experiment with DMS 273 small cell lung and with DMS 114 small cell lung was more than 100 µM each time. In the experiment on RXF 393 renal, this compound registered a TGI of more than 100 µM.

For `O=C(O)c1cc(=O)c2c(OCC(O)COc3cccc4oc(C(=O)O)cc(=O)c34)cccc2o1`, the TGI in the experiment with 786-0 renal, in the experiment on SF-295 CNS, with NCI-H23 lung, in the experiment with BT-549 breast, in the experiment with CCRF-CEM leukemia and in the experiment on SK-OV-3 ovarian was more than 100 µM throughout. For the same compound, the TGI in the experiment with OVCAR-3 ovarian, with PC-3 prostate and in the experiment with RXF 393 renal was more than 100 µM in each case.

Regarding `c1ccc(C(NC2=NCCO2)c2ccccc2)cc1`, the TGI in the experiment with SF-295 CNS, with NCI-H23 lung, in the experiment on CCRF-CEM leukemia, in the experiment with SK-OV-3 ovarian, in the experiment with OVCAR-3 ovarian and with PC-3 prostate was more than 10 µM each time. Besides, in the experiment with RXF 393 renal, the TGI is more than 10 µM.

The values are drawn from PubChem BioAssay (NCI).
